Measurements: ChEMBL document CHEMBL3352821, “Cyclic Hexapeptides from the Deep South China Sea-Derived Streptomyces scopuliridis SCSIO ZJ46 Active Against Pathogenic Gram-Positive Bacteria” (J Nat Prod, 2014)
In brackets after ≈: the same amount, converted by molar mass. Non-standard residues stand in square brackets, D forms with d. Residues, ends and D or L forms follow the SMILES beside them. aIle = CC[C@@H](C)[C@H](N)C(=O)O

Experiments:
[1] = tested on: Streptococcus pneumoniae; experiment: Antimicrobial activity against Streptococcus pneumoniae NCTC 7466 by serial dilution/CLSI method; format: functional
[2] = tested on: Staphylococcus aureus; experiment: Antimicrobial activity against methicillin-resistant Staphylococcus aureus shhs-A1 clinical isolate by serial dilution/CLSI method; format: functional
[3] = tested on: Staphylococcus aureus; experiment: Antimicrobial activity against Staphylococcus aureus ATCC 29213 by serial dilution/CLSI method; format: functional
[4] = tested on: Staphylococcus epidermidis; experiment: Antimicrobial activity against methicillin-resistant Staphylococcus epidermidis shhs-E1 clinical isolate by serial dilution/CLSI method; format: functional
[5] = tested on: NCI-H460; experiment: Cytotoxicity against human NCI-H460 after 72 hrs by SRB assay; format: functional, cell-based; conditions: NCI-H460, 72 h
[6] = tested on: Klebsiella pneumoniae; experiment: Antimicrobial activity against Klebsiella pneumoniae ATCC 13883 by serial dilution/CLSI method; format: functional
[7] = tested on: MCF7; experiment: Cytotoxicity against human MCF7 cells after 72 hrs by SRB assay; format: functional, cell-based; conditions: MCF7, 72 h
[8] = tested on: HepG2; experiment: Cytotoxicity against human HepG2 cells after 72 hrs by SRB assay; format: functional, cell-based; conditions: HepG2, 72 h
[9] = tested on: SF-268; experiment: Cytotoxicity against human SF268 cells after 72 hrs by SRB assay; format: functional, cell-based; conditions: SF-268, 72 h

SMILES	MIC [1] [µg/mL]	MIC [2] [µg/mL]	MIC [3] [µg/mL]	MIC [4] [µg/mL]	IC50 [5] [µM]	MIC [6] [µg/mL]	IC50 [7] [µM]	IC50 [8] [µM]	IC50 [9] [µM]
CC[C@@H](C)[C@@H]1NC(=O)[C@@H](CC(C)C)NC(=O)[C@H](CC(C)C)NC(=O)[C@H](CC(=O)c2ccccc2N)NC(=O)CNC(=O)[C@H](CC(N)=O)NC1=O	> 100	> 128	> 128	> 128	> 100	> 128	> 100	> 100	> 100
CN[C@H](CC(C)C)C(=O)N[C@H]1C(=O)N[C@@H](CC(N)=O)C(=O)N[C@H]2C(=O)N[C@H]3C(=O)N[C@H](C(=O)N[C@H](C(=O)O)c4cc(O)cc(O)c4-c4cc3ccc4O)[C@H](O)c3ccc(c(Cl)c3)Oc3cc2cc(c3O[C@@H]2O[C@H](CO)[C@@H](O)[C@H](O)[C@H]2O[C@H]2C[C@](C)(N)[C@H](O)[C@H](C)O2)Oc2ccc(cc2Cl)[C@H]1O [VANCOMYCIN]	0.37 (≈ 0.255 µM)	–	–	–	–	> 128	–	–	–
CC[C@@H](C)[C@@H]1NC(=O)[C@@H](CC(C)C)NC(=O)[C@H](CC(C)C)NC(=O)[C@H](CC(=O)c2ccccc2NC=O)NC(=O)CNC(=O)[C@H](CC(N)=O)NC1=O	> 100	> 128	> 128	> 128	> 100	> 128	> 100	> 100	> 100
CC[C@@H](C)[C@@H]1NC(=O)[C@@H](CC(C)C)NC(=O)[C@H](CC(C)C)NC(=O)[C@H](Cc2c[nH]c3ccccc23)NC(=O)CNC(=O)[C@H](CC(N)=O)NC1=O [DESOTAMIDE] (cyclo(GWL[dL][aIle]N))	12.5 (≈ 17.9 µM)	> 128	16 (≈ 23 µM)	32 (≈ 45.9 µM)	> 100	> 128	> 100	> 100	> 100
CC(C)C[C@@H]1NC(=O)[C@H](Cc2c[nH]c3ccccc23)NC(=O)CNC(=O)[C@H](CC(N)=O)NC(=O)[C@H](C(C)C)NC(=O)[C@@H](CC(C)C)NC1=O	12.5 (≈ 18.3 µM)	> 128	16 (≈ 23.4 µM)	32 (≈ 46.9 µM)	> 100	> 128	> 100	> 100	> 100
